Assay type in all cases: functional
Experiment [1] relates to Radical scavenging activity. The experiment can be described thus: Antioxidant activity assessed as DPPH radical scavenging activity at 0.9 mM after 20 min. For orientation: The DPPH test is a chemical assay of radical scavenging.
In experiment [2] the test system is Radical scavenging activity. The experiment can be described thus: Antioxidant activity assessed as DPPH radical scavenging activity at 1.8 mM after 10 min.
Experiment [3] concerns Radical scavenging activity. The experiment can be described thus: Antioxidant activity assessed as DPPH radical scavenging activity at 3.6 mM after 10 min.
In experiment [4] the test system is Radical scavenging activity. The experiment can be described thus: Antioxidant activity assessed as DPPH radical scavenging activity at 1.8 mM after 20 min.
Experiment [5] concerns Radical scavenging activity. In words: Antioxidant activity assessed as DPPH radical scavenging activity at 3.6 mM after 20 min.
The next experiment deals with Streptococcus pyogenes. In words: Antimicrobial activity against Streptococcus pyogenes 10535 assessed as growth inhibition after 24 hr by serial dilution method. The settings on record: Streptococcus pyogenes, 10535, 24 h.
The subject of experiment [6] is Radical scavenging activity. The experiment can be described thus: Antioxidant activity assessed as DPPH radical scavenging activity at 0.9 mM after 10 min.

This is an account of results in ChEMBL document CHEMBL3045072, “Anti-tyrosinase, antioxidant and antimicrobial activities of hydroxycinnamoylamides” (Med Chem Res, 2013).

Values after ≈ are worked out from the molar mass of the structure shown.

Broadly, the MIC is the lowest concentration that inhibits growth of the organism. On to `COC(=O)[C@H](Cc1c[nH]c2ccccc12)NC(=O)/C=C/c1cc(OC)c(O)c(OC)c1`, for which the Activity in experiment [1] worked out at 14.6%; in experiment [2] it was 26%; in experiment [3], 48.1%; in experiment [4] it was 27.3%; in experiment [5], 49.9%; in experiment [6], 13.7%. Also, the minimum inhibitory concentration (MIC) in the experiment with Streptococcus pyogenes worked out at 250 µg/mL (≈ 589 µM).
Take `COc1cc(/C=C/C(=O)N[C@@H](Cc2ccccc2)C(=O)OC(C)(C)C)ccc1O`: the Activity is 13.5% in experiment [1]; 19.5% in experiment [2]; 30.4% in experiment [3]; 23.6% in experiment [4]; 36.9% in experiment [5]; 10.9% in experiment [6].
Turning to `O=c1c(O)c(-c2ccc(O)c(O)c2)oc2cc(O)cc(O)c12`, the Activity worked out at 45.2% in experiment [1]; 46.7% in experiment [2]; 76% in experiment [3]; 58.4% in experiment [4]; 78% in experiment [5]; 40.4% in experiment [6].
For the compound `COC(=O)[C@H](Cc1ccc(O)cc1)NC(=O)/C=C/c1ccccc1`, the Activity amounted to 2.12% in experiment [1]; 2.05% in experiment [2]; 2.12% in experiment [3]; 2.3% in experiment [4]; 2.57% in experiment [5]; 1.74% in experiment [6].
`COC(=O)[C@H](Cc1c[nH]c2ccccc12)NC(=O)/C=C/c1ccc(O)c(OC)c1`: the Activity in experiment [1] amounted to 9.76%; in experiment [2] it was 14.5%; in experiment [3], 26.4%; in experiment [4], 17.4%; in experiment [5], 30.9%; in experiment [6], 7.96%.
As for `COC(=O)[C@H](Cc1c[nH]c2ccccc12)NC(=O)/C=C/c1ccc(O)cc1`, the Activity in experiment [1] is 2.13%; in experiment [2], 1.69%; in experiment [3], 2.42%; in experiment [4], 2.37%; in experiment [5] it was 2.88%; in experiment [6], 1.92%.
Turning to `COC(=O)[C@H](Cc1ccccc1)NC(=O)/C=C/c1ccccc1`, the Activity in experiment [1] worked out at 2.52%; in experiment [2], 2.39%; in experiment [3], 2.18%; in experiment [4] it was 2.6%; in experiment [5], 2.58%; in experiment [6], 2%.
Regarding `COC(=O)[C@H](Cc1c[nH]c2ccccc12)NC(=O)/C=C/c1ccccc1`, the Activity turned out to be 0.69% in experiment [1]; 1.2% in experiment [2]; 1.18% in experiment [3]; 1.41% in experiment [4]; 1.48% in experiment [5]; 0.79% in experiment [6].
Turning to `COC(=O)[C@H](Cc1ccc(O)cc1)NC(=O)/C=C/c1ccc(O)c(O)c1`, the Activity turned out to be 28.7% in experiment [1]; 51% in experiment [2]; 89.6% in experiment [3]; 52.5% in experiment [4]; 90.2% in experiment [5]; 27.4% in experiment [6].
As to `CC(C)(C)OC(=O)[C@H](Cc1ccccc1)NC(=O)/C=C/c1ccc(O)cc1`, the Activity in experiment [1] came to 2.3%; in experiment [2] it was 1.89%; in experiment [3], 2.46%; in experiment [4], 2.23%; in experiment [5], 2.92%; in experiment [6], 1.97%.
Take `Cc1c(C)c2c(c(C)c1O)CCC(C)(CCCC(C)CCCC(C)CCCC(C)C)O2` (racemic): the Activity in experiment [1] amounted to 24.8%; in experiment [2], 40.8%; in experiment [3], 62.9%; in experiment [4], 46.8%; in experiment [5], 73.3%; in experiment [6], 23.2%.
In the case of `COc1cc(/C=C/C(=O)N[C@@H](Cc2ccccc2)C(=O)OC(C)(C)C)cc(OC)c1O`, the Activity in experiment [1] was 16.7%; in experiment [2], 25%; in experiment [3], 46.8%; in experiment [4] it was 28.2%; in experiment [5], 50.6%; in experiment [6], 13.7%.
